Assay results taken from ChEMBL document CHEMBL3507680, “University of Dundee, Gates Library screen for HepG2 cell viability”.

Experiment: Human HepG2 cell viability assay in 384 well format
Format: toxicity, cell-based
Parameters: dose 125 nL, time 70.5 hour; concentration not given beside the values
Settings: HepG2 cells, read-out: Inhibition

Compound	cytotoxicity at 70.5 h [%]
Cc1nn2c(N3CCC(C(N)=O)CC3)cc(-c3ccccc3)nc2c1C	-2.04
CCC(=O)N1CCC2(CC1)c1nc[nH]c1CCN2S(C)(=O)=O	-4.48
CCN(CC(=O)NC(C)C)S(=O)(=O)N1CCCCCC1	-5.99
COCCCC1(CO)CCCN(Cc2ccc(F)c(OC)c2)C1 (stereo unspecified)	9.96
Cn1c(C(=O)N2CCc3[nH]cnc3C2C(=O)O)ccc1-c1ccccc1 (stereo unspecified)	-2.27
CCc1cc(NCCc2ccc(O)cc2)n2nccc2n1	2.9
CS(=O)(=O)c1ccccc1NC(=O)N[C@@H]1c2ccccc2C[C@@H]1O	12.9
CC(C)CNC(=O)Nc1cccc(OCC#N)c1	-7.35
Cc1nsc(NC(=O)N2CCc3sccc3C2)n1	-7.28
CC(=O)N(Cc1ncc(C)o1)C1CCN(CCn2cccn2)C1 (stereo unspecified)	9.96
O=C(NCCc1ccccc1)NCC(O)c1cccc(F)c1 (stereo unspecified)	-3.34
Clc1cccc(C(NCc2ncc[nH]2)c2ccccn2)c1 (stereo unspecified)	1.18
CC(NCc1ccccc1CN1CCCC1=O)c1ccc(C#N)cc1 (stereo unspecified)	4.5
CC(NCCN1CCN(C(=O)C2CCCC2)CC1)c1nccs1 (stereo unspecified)	7.3
CN1CCCCCC1C(=O)N1CCCN(c2ccccc2)CC1 (stereo unspecified)	4.68
CN(CCNC(=O)NCc1ccncc1)C1CCCC1	-18
CCOCC1c2c(ncn2C)CCN1C(=O)c1ccoc1 (stereo unspecified)	-17.6
CC(C)(C)n1ncc2c1NC(=O)CSC2c1ccsc1 (stereo unspecified)	-13.1
Cc1cccc2[nH]c(C3CCN(C(=O)c4c[nH]c(=O)[nH]c4=O)CC3)nc12	-7.98
CCN(CCO)C(=O)c1cc(Cn2c(C)nc3ccccc32)[nH]n1	-9.25
CN(C)CC1CSCCCN1C(=O)c1cccc(C(F)(F)F)c1 (stereo unspecified)	3.74

Compound	cytotoxicity at 70.5 h [%]
CCC(CC)c1cc(CNC(=O)N2CCC[C@@H]2CO)on1	15.7
CN(C)CC(=O)N1Cc2cc(N(C)C)ccc2C1c1cnco1 (stereo unspecified)	-12.7
O=C(O)c1csc(S(=O)(=O)N2CCN(Cc3c(F)cccc3Cl)CC2)c1	-31.1
COc1coc(C(=O)Nc2ccncc2)cc1=O	-12.7
CC(C)NC(=O)NC[C@H]1OC[C@@H](NCc2ccc(S(C)(=O)=O)cc2)[C@@H]1O	-3.26
CC(NCc1ccc(C(N)=O)cc1)c1ccc(Cl)c(Cl)c1 (stereo unspecified)	-11.9
CC(=O)N[C@@H]1CN(Cc2ccc(F)cc2F)C[C@H]1c1ccc(C)o1	11.7
CCN(C(=O)NCc1ccc(C)cc1OC)C(C)c1cccnc1 (stereo unspecified)	-6.56
Cc1cc(-c2cnc(N3CCOCC3)nc2-c2cccnc2C)on1	-4.33
CNc1nc(C2CCCN(C(=O)C3CCCCC3)C2)nc2c1CNCC2 (stereo unspecified)	-3.63
COc1cccc(CNC(=O)NC2(c3nc(C)no3)CCCCC2)c1	13.3
COc1ccc(CN)c(OC(F)F)c1	-10.1
CC(C)(C)c1ccc(CN2C[C@H]3C[C@H](O)C[C@H]3C2)c(OCC(N)=O)c1	-2.7
CN(C)CC1(O)CCN(C(=O)c2cnc(-c3cccnc3)nc2)C1 (stereo unspecified)	3.5
c1cnc(N2CCC3(COCc4cnc(-c5cccnc5)nc43)C2)nc1 (stereo unspecified)	19.5
Cc1cc(NC2CC3(CCN(Cc4ncccc4F)C3)C2)ncn1 (stereo unspecified)	-3.79
O=C(C1CCC1)N1C[C@@H](c2ccsc2)[C@@H]2CN(C3CCCC3)CC[C@@H]21	-3.74
Cn1cccc1C(=O)N1CCC2(CC1)CN(c1ccccc1)C(=O)CO2	-14.1
CCCc1nnc(NC(C)c2ccc(F)cc2)o1 (stereo unspecified)	-8.69
CCN1C[C@@H]2CN(C(=O)c3ccsc3)C[C@@H]2C1=O	-0.46
CCCOC1CCCN(C(=O)c2cc(CN(CC)CC)c(CC)o2)C1 (stereo unspecified)	17.7

Compound	cytotoxicity at 70.5 h [%]
NC(=O)C1CCN(Cc2cccc(NC(=O)c3ccsc3)c2)CC1	0.035
COc1ccc(OC)c(C2CCN(C(=O)C3CCN(C(C)C)CC3)C2)c1 (stereo unspecified)	-8.95
Cc1n[nH]c(C2CN(CCc3cccs3)CCO2)n1 (stereo unspecified)	14.5
CC(NC(=O)NCc1cc[nH]n1)c1ccc2c(c1)CCC(=O)N2 (stereo unspecified)	-19.8
CN(C)CCN1C[C@@H]2CN(S(=O)(=O)c3ccccc3)C[C@@H]2C1=O	-0.863
COc1ccc(N(C(=O)c2cnc(C)cn2)C(C)C)cc1F	-3.96
O=C(O)[C@@H]1CN(C(=O)CSCC2CC2)C[C@H]1c1ccncc1	1.26
CC(C)(C)CNC(=O)c1ccc(C(=O)O)cc1	-5.94
O=C(NC1CC1)C1CCc2nnc(-c3cccnc3)n21 (stereo unspecified)	-7.6
Cc1nc(CN2C[C@@H](CN3CCOCC3)[C@@H](CO)C2)c2ccccn12	16.5
CN(Cc1ccco1)C(=O)CN1CCN(C)c2ccccc2C1	-3
O=C(CCn1nc(C(=O)Nc2ccccc2)ccc1=O)Nc1nccs1	1.25
O=C(c1ccc(=O)[nH]c1)N1CCCC2(C=Cc3ccccc3O2)CC1 (stereo unspecified)	-3.22
CCn1cc(CN2C[C@@H]3CCCN3C[C@@H]2CCSC)c(C)n1	-22.6
Cc1cnn(CCNCC(O)COc2ccc3ccccc3c2)c1 (stereo unspecified)	-0.298
O=C(NCCOc1ncc(Cl)cc1Cl)c1ccncc1F	0.0766
Cc1nc(N(C)CCCc2nccn2C)c2c(C)nn(C)c2n1	-6.47
Cc1c[nH]nc1C1CCCN1Cc1nccn1C (stereo unspecified)	-4.65
CC(=O)N1CCN(C(=O)C2CCN(c3cccnn3)C2)CC1 (stereo unspecified)	-0.877
CN1C[C@]2(CC[C@@H](C(=O)O)CC2)Oc2ccccc2C1=O	-6.54
CCNC(c1cccnc1)c1cc(C)cc(C)c1 (stereo unspecified)	2.24

Compound	cytotoxicity at 70.5 h [%]
Cc1ccnc(CC(C)N(C)c2cc(CCN)nc(C)n2)c1 (stereo unspecified)	-6.01
Cc1noc(C)c1CNCC1COCc2c(-c3ccoc3)nnn2C1 (stereo unspecified)	-9.07
Cn1nc2c(cc1=O)CN(CC(=O)NC1CCCCNC1=O)CC2 (stereo unspecified)	12.7
Cc1nccn1C1CCCN(C(=O)c2ccc3nnc(C)n3c2)C1 (stereo unspecified)	14.1
CN(CCCOc1ccc(F)cc1)Cc1nc2c(cnn2C)c(=O)[nH]1	4.27
CCn1nc(C)c(CN(CCOC)C(=O)c2ccc(=O)[nH]n2)c1C	-4.87
c1csc(CN2CCC3(CC2)CCN(CC2CCOCC2)C3)n1	0.161
Cc1nc(CN2CCCC(CCc3cccc(C(F)(F)F)c3)C2)co1 (stereo unspecified)	-3.79
CSCCCNc1ncnc2cccc(F)c12	23.2
Cc1cc(NC(=O)CN2CCn3c(nnc3C3CC3)C2)no1	-5.22
CCN(CC)C(=O)c1ccc(Cl)c(NC(=O)c2csnn2)c1	-10.1
CS(=O)(=O)N1CCCC(C(=O)Nc2cnn(Cc3ccc(F)cc3)c2)C1 (stereo unspecified)	0.36
c1cnn(CC2CCCCN2Cc2cn3ccsc3n2)c1 (stereo unspecified)	-13.5
COc1ccc(C(=O)N(CCO)Cc2ccccc2)c(OC)n1	21.2
c1ccc2nc(N3CCCC3c3nnc4n3CCCCC4)cnc2c1 (stereo unspecified)	0.321
NC(=O)[C@@H]1Cc2ccccc2CN1S(=O)(=O)N1CCCCCC1	-4.6
O=C(COc1cccc2c1CCC2=O)NCC(F)(F)F	-2.4
CN(CCc1cccs1)C(=O)Nc1cccc(S(C)(=O)=O)c1	-2.36
